ChEMBL document CHEMBL1201862, “PubChem BioAssay data set” (2004)
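Dose response: 5 concentrations. Exposure: 48 h. Format: 96-well plates. Endpoint: linear interpolation; highest concentration if not reached. GI50: concentration for 50% inhibition of growth.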 Active and inactive are the calls of the source. Cut-off read from the data, not from the text of the source: active = GI50 up to about 1.1 µM and inactive = higher.

Key:
Experiment in all cases: NCI-60 cell line screen, 48 h
[1] = test system: MOLT-4
[2] = test system: HOP-62
[3] = test system: 786-0
[4] = test system: OVCAR-3
[5] = test system: HCT-116
[6] = test system: SNB-75
[7] = test system: SK-OV-3
[8] = test system: IGROV-1
[9] = test system: A549
[10] = test system: SK-MEL-2
[11] = test system: COLO 205
[12] = test system: SK-MEL-28
[13] = test system: HT-29
[14] = test system: UACC-62
[15] = test system: A498
[16] = test system: OVCAR-4
[17] = test system: UACC-257
[18] = test system: EKVX

| SMILES | GI50 [1] | GI50 [2] | GI50 [3] | GI50 [4] | GI50 [5] | GI50 [6] | GI50 [7] | GI50 [8] | GI50 [9] | GI50 [10] | GI50 [11] | GI50 [12] | GI50 [13] | GI50 [14] | GI50 [15] | GI50 [16] | GI50 [17] | GI50 [18] |
| --- | --- | --- | --- | --- | --- | --- | --- | --- | --- | --- | --- | --- | --- | --- | --- | --- | --- | --- |
| CN(C)CCNc1ccc2ncn3c4ccccc4c(=O)c1c23 | 0.615 µM (active) | 4.46 µM (inactive) | 2.03 µM (inactive) | 7.76 µM (inactive) | 0.459 µM (active) | 3.25 µM (inactive) | 2.09 µM (inactive) | 2.42 µM (inactive) | 1.82 µM (inactive) | 2.99 µM (inactive) | 0.94 µM (active) | 3.93 µM (inactive) | 1.38 µM (inactive) | 3.22 µM (inactive) | 6.93 µM (inactive) | 1.99 µM (inactive) | 2.97 µM (inactive) | – |
| C[N+]1=C(c2cccnc2/C=N/O)OCC1(C)C | > 100 µM (inactive) | > 100 µM (inactive) | > 100 µM (inactive) | > 100 µM (inactive) | > 100 µM (inactive) | > 100 µM (inactive) | > 100 µM (inactive) | > 100 µM (inactive) | > 100 µM (inactive) | > 100 µM (inactive) | > 100 µM (inactive) | > 100 µM (inactive) | > 100 µM (inactive) | > 100 µM (inactive) | > 100 µM (inactive) | > 100 µM (inactive) | > 100 µM (inactive) | > 100 µM (inactive) |
| CC1(C)CC(=O)C(=[N+]=[N-])C(=O)C1 | – | > 100 µM (inactive) | > 100 µM (inactive) | > 100 µM (inactive) | > 100 µM (inactive) | > 100 µM (inactive) | > 100 µM (inactive) | > 100 µM (inactive) | > 100 µM (inactive) | > 100 µM (inactive) | > 100 µM (inactive) | > 100 µM (inactive) | > 100 µM (inactive) | > 100 µM (inactive) | – | > 100 µM (inactive) | > 100 µM (inactive) | > 100 µM (inactive) |
| COc1ccc(/C=c2/sc3n(c2=O)NC2(CCCCC2)NN=3)cc1 | > 100 µM (inactive) | – | > 100 µM (inactive) | > 100 µM (inactive) | > 100 µM (inactive) | 92.7 µM (inactive) | > 100 µM (inactive) | > 100 µM (inactive) | > 100 µM (inactive) | > 100 µM (inactive) | > 100 µM (inactive) | > 100 µM (inactive) | > 100 µM (inactive) | > 100 µM (inactive) | – | > 100 µM (inactive) | – | > 100 µM (inactive) |
| C=CCO/N=C(\OC(=O)c1ccc([N+](=O)[O-])cc1)c1ccccc1 | – | > 100 µM (inactive) | > 100 µM (inactive) | > 100 µM (inactive) | – | > 100 µM (inactive) | > 100 µM (inactive) | > 100 µM (inactive) | > 100 µM (inactive) | > 100 µM (inactive) | > 100 µM (inactive) | > 100 µM (inactive) | > 100 µM (inactive) | > 100 µM (inactive) | > 100 µM (inactive) | > 100 µM (inactive) | – | > 100 µM (inactive) |
| NC(=O)c1ccc(Cl)c([N+](=O)[O-])c1 | > 100 µM (inactive) | > 100 µM (inactive) | > 100 µM (inactive) | > 100 µM (inactive) | > 100 µM (inactive) | > 100 µM (inactive) | > 100 µM (inactive) | > 100 µM (inactive) | > 100 µM (inactive) | – | > 100 µM (inactive) | > 100 µM (inactive) | > 100 µM (inactive) | > 100 µM (inactive) | > 100 µM (inactive) | > 100 µM (inactive) | > 100 µM (inactive) | > 100 µM (inactive) |
| N#Cc1ccc(OCCSCCCCCCCCCCSCCOc2ccc(C#N)cc2)cc1 | > 100 µM (inactive) | > 100 µM (inactive) | > 100 µM (inactive) | > 100 µM (inactive) | – | > 100 µM (inactive) | > 100 µM (inactive) | > 100 µM (inactive) | > 100 µM (inactive) | > 100 µM (inactive) | > 100 µM (inactive) | > 100 µM (inactive) | – | > 100 µM (inactive) | > 100 µM (inactive) | – | 2.25 µM (inactive) | > 100 µM (inactive) |
| COC(=O)C1=CC2OC1(C)C1(CC1)C2=O (stereo not drawn) | 6.92 µM (inactive) | > 100 µM (inactive) | 17.2 µM (inactive) | 16.2 µM (inactive) | 13.8 µM (inactive) | 19.8 µM (inactive) | 76.9 µM (inactive) | 17.9 µM (inactive) | 24.3 µM (inactive) | > 10 µM (inactive) | 13.5 µM (inactive) | – | 12.9 µM (inactive) | – | – | 11.6 µM (inactive) | 16.1 µM (inactive) | 15.2 µM (inactive) |
| COC1(OC)CCCCC2c3cccc(OC(C)=O)c3C21OC(C)=O (stereo not drawn) | 64.3 µM (inactive) | > 100 µM (inactive) | > 100 µM (inactive) | 94 µM (inactive) | 57.9 µM (inactive) | > 100 µM (inactive) | > 100 µM (inactive) | > 100 µM (inactive) | > 100 µM (inactive) | > 100 µM (inactive) | > 100 µM (inactive) | > 100 µM (inactive) | > 100 µM (inactive) | > 100 µM (inactive) | – | > 100 µM (inactive) | > 100 µM (inactive) | > 100 µM (inactive) |
| NC(=S)N/N=C1\CCCC\C1=C/c1ccccc1 | 19.6 µM (inactive) | > 100 µM (inactive) | 63.8 µM (inactive) | 39.1 µM (inactive) | 58.2 µM (inactive) | 30.5 µM (inactive) | > 100 µM (inactive) | 25.2 µM (inactive) | > 100 µM (inactive) | 73.3 µM (inactive) | 65.6 µM (inactive) | > 100 µM (inactive) | 20 µM (inactive) | 57.7 µM (inactive) | > 100 µM (inactive) | 27 µM (inactive) | 17.9 µM (inactive) | 99.8 µM (inactive) |
| CCOC(=O)c1cc(-c2cc(OC)c(OC)c([N+](=O)[O-])c2)c([N+](=O)[O-])n1C | 3.5 µM (inactive) | – | > 10 µM (inactive) | 7.67 µM (inactive) | 5.33 µM (inactive) | > 10 µM (inactive) | – | 5.9 µM (inactive) | > 10 µM (inactive) | > 10 µM (inactive) | – | – | 3.18 µM (inactive) | 3.53 µM (inactive) | – | > 10 µM (inactive) | 3.02 µM (inactive) | > 10 µM (inactive) |
| COC(=O)C(Cc1nc2ccccc2nc1O)C(NO)C(=O)Nc1c(Cl)cc([N+](=O)[O-])cc1Cl (stereo not drawn) | 27.9 µM (inactive) | 26 µM (inactive) | 40.6 µM (inactive) | 40.6 µM (inactive) | 22.3 µM (inactive) | – | 37.9 µM (inactive) | 40.8 µM (inactive) | 38.5 µM (inactive) | 32.1 µM (inactive) | 46.2 µM (inactive) | 30.9 µM (inactive) | 35.2 µM (inactive) | 18 µM (inactive) | 21.4 µM (inactive) | 38.5 µM (inactive) | 27.7 µM (inactive) | 27.7 µM (inactive) |
| CC1CC2C3CC(F)C4=CC(=O)C=CC4(C)C3(F)C(O)CC2(C)C1(O)C(=O)CO (stereo not drawn) | > 100 µM (inactive) | > 100 µM (inactive) | > 100 µM (inactive) | > 100 µM (inactive) | > 100 µM (inactive) | > 100 µM (inactive) | < 0.01 µM (active) | > 100 µM (inactive) | > 100 µM (inactive) | > 100 µM (inactive) | > 100 µM (inactive) | > 100 µM (inactive) | > 100 µM (inactive) | > 100 µM (inactive) | – | > 100 µM (inactive) | > 100 µM (inactive) | > 100 µM (inactive) |
| O=S(=O)(O)SC/C=C\CSS(=O)(=O)O | > 100 µM (inactive) | > 100 µM (inactive) | > 100 µM (inactive) | > 100 µM (inactive) | > 100 µM (inactive) | 60.4 µM (inactive) | 57.8 µM (inactive) | > 100 µM (inactive) | 44.4 µM (inactive) | – | > 100 µM (inactive) | > 100 µM (inactive) | 42.3 µM (inactive) | > 100 µM (inactive) | > 100 µM (inactive) | > 100 µM (inactive) | > 100 µM (inactive) | > 100 µM (inactive) |
| CC12CCC[C@@](C)(C(=O)OC3OC(CO)C(O)C(O)C3O)[C@H]1CCC13CC4CC(OC4(CO)[C@H]1O)[C@@H]23 (stereo partly drawn) | > 100 µM (inactive) | > 100 µM (inactive) | > 100 µM (inactive) | > 100 µM (inactive) | > 100 µM (inactive) | > 100 µM (inactive) | > 100 µM (inactive) | > 100 µM (inactive) | > 100 µM (inactive) | > 100 µM (inactive) | – | > 100 µM (inactive) | > 100 µM (inactive) | > 100 µM (inactive) | > 100 µM (inactive) | > 100 µM (inactive) | > 100 µM (inactive) | > 100 µM (inactive) |
| CC1CC[C@]2(C(=O)O)CCC3(COC(=O)/C=C\c4ccc(O)cc4)C(=CCC4[C@@]5(C)CC[C@H](O)C(C)(C)C5CC[C@]43C)[C@@H]2[C@H]1C (stereo partly drawn) | 26.6 µM (inactive) | – | 21.3 µM (inactive) | 18.2 µM (inactive) | 17.5 µM (inactive) | 27.7 µM (inactive) | 3.5 µM (inactive) | 11.5 µM (inactive) | 11.3 µM (inactive) | 20.8 µM (inactive) | 23.3 µM (inactive) | 20 µM (inactive) | 19.7 µM (inactive) | 17.2 µM (inactive) | 27 µM (inactive) | 39.3 µM (inactive) | 31 µM (inactive) | 16.7 µM (inactive) |
| CCN(CC)C(=S)S [DITIOCARB SODIUM] | – | > 100 µM (inactive) | 67.9 µM (inactive) | – | 0.0323 µM (active) | 0.261 µM (active) | > 100 µM (inactive) | – | – | > 81.1 µM (inactive) | 0.0713 µM (active) | > 47.9 µM (inactive) | 0.216 µM (active) | 0.388 µM (active) | – | – | 21.2 µM (inactive) | > 100 µM (inactive) |
